A value given as a limit tells only on which side of the number the result lay.

As usually defined, the IC50 is the midpoint of a concentration-inhibition curve.

The first assay has as its system IL-1β production in PMA-differentiated THP-1 cells. The assay can be described thus: IL-1β production in PMA-differentiated THP-1 cells stimulated with gramicidin (hTHP-1 assay, 2% bovine serum; Bioassays 1 and 2). It is filed as cell-based, human. Particulars: Homo sapiens, THP-1; hTHP-1 assay containing 2% bovine serum; Table 12, by Example #; read-out: Average IC50 of compounds in hTHP-1 assay. How it is done: IL-1β Production in PMA-Differentiated THP-1 Cells Stimulated with Gramicidin.
Cell culture-THP-1 cells were purchased from the American Type Culture Collection and sub-cultured according to instructions from the supplier. Prior to experiments, cells were cultured in RPMI 1640 containing 10% heat inactivated FBS, penicillin (100 units/ml) and streptomycin (100 μg/ml), and maintained in log phase prior to experimental setup. Prior to the experiment THP-1 were treated with PMA (Phorbol 12-myristate 13-acetate) (10 μg/ml) for 24 hours. The day of the experiment the media was removed and attaching cells were treated with trypsin for 2 minutes, cells were then collected, washed with PBS (phosphate buffer saline), spin down, resuspended in 2% heat inactivated FBS with RPMI at a concentration of 1×10^6 cells/ml, and 100 ul was plated in a 96 well plate. Cells were incubated with compounds for 1 hours and then stimulated with Gramicidin (5 μM) (Enzo) for 2 hours. Cell free supernatant was collected and the production of IL-1β was evaluated by ELISA. Compounds were dissolved in dimethyl sulfoxide (DMSO) and added to the culture medium to achieve desired concentration (e.g. 100, 30, 10, 3, 1, 0.3 or 0.1 μM). A vehicle only control was run concurrently with each experiment. Final DMSO concentration was 1%.
THP-1 cells were purchased from the American Type Culture Collection and sub-cultured according to instructions from the supplier. Prior to experiments, cells were cultured in complete RPMI 1640 (containing 10% heat inactivated FBS, penicillin (100 units/ml) and streptomycin (100 μg/ml)), and maintained in log phase prior to experimental setup. Prior to the experiment THP-1 were treated with PMA (Phorbol 12-myristate 13-acetate) (20 ng/ml) for 16-18 hours. On the day of the experiment the media was removed and adherent cells were detached with trypsin for 5 minutes. Cells were then harvested, washed with complete RPMI 1640, spun down, resuspended in RPMI 1640 (containing 2% heat inactivated FBS, penicillin (100 units/ml) and streptomycin (100 μg/ml). The cells were plated in a 384-well plate at a density of 50,000 cells/well (final assay volume 50 μl). Compounds were dissolved in dimethyl sulfoxide (DMSO) and added to the culture medium to achieve desired concentration (e.g. 100, 33, 11, 3.7, 1.2, 0.41, 0.14, 0.046, 0.015, 0.0051, 0.0017 μM). Cells were incubated with compounds for 1 hour and then stimulated with gramicidin (5 μM) (Enzo) for 2 hours. Cell free supernatant was collected and the production of IL-10 was evaluated by HTRF (cisbio). A vehicle only control was run concurrently with each experiment. Final DMSO concentration was 0.38%.
Compounds tested with protocols 1 and 2 provided IC50 values that are within the variability of the assay.
Tables 12 and 13 show the biological activity of compounds in hTHP-1 assay containing 2% bovine serum: <1 μM=“++++”; ≥1 and <5 μM=“+++”; ≥5 and <15 μM=“++”; ≥15 and <60 μM=“+”.
As for `CC(C)c1cc(F)cc(C(C)C)c1CC(=O)NS(=O)(=O)c1ccc(C(C)(C)O)cc1F` [Example 54, 2-(4-fluoro-2,6-diisopropylphenyl)-N-(2-fluoro-4-(2-hydroxypropan-2-yl)phenylsulfonyl)acetamide], the 50% inhibitory concentration (IC50) was less than 1 µM.

With `CC(C)c1cc(F)cc(C(C)C)c1CC(=O)NS(=O)(=O)c1cc(C2(C)OCCO2)ccc1F` [Example 56, 2-(4-fluoro-2,6-diisopropylphenyl)-N-(2-fluoro-5-(2-methyl-1,3-dioxolan-2-yl)phenylsulfonyl)acetamide], the IC50 was less than 1 µM.

For `CC1(c2ccc(F)c(S(=O)(=O)NC(=O)Cc3c4c(c(F)c5c3CCC5)CCC4)c2)OCCO1` [Example 57, 2-(8-fluoro-1,2,3,5,6,7-hexahydros-indacen-4-yl)-N-(2-fluoro-5-(2-methyl-1,3-dioxolan-2-yl)phenylsulfonyl)acetamide], the half-maximal inhibitory concentration (IC50) is 15 to 60 µM.

On to `CC(C)c1cc(F)cc(C(C)C)c1CC(=O)NS(=O)(=O)c1ccc(S(C)(=O)=O)cc1` [Example 58, 2-(4-fluoro-2,6-diisopropylphenyl)-N-(4-(methylsulfonyl)phenylsulfonyl)acetamide], for which the IC50 was 1 to 5 µM.

In the case of `CC(C)c1cc(F)cc(C(C)C)c1CC(=O)NS(=O)(=O)c1cccc(S(C)(=O)=O)c1` [Example 59, 2-(4-fluoro-2,6-diisopropylphenyl)-N-(3-(methylsulfonyl)phenylsulfonyl)acetamide], the IC50 was 15 to 60 µM.

For `CC(C)c1cc(Cl)cc(C(C)C)c1CC(=O)NS(=O)(=O)c1ccn(C(C)C)n1` [Example 61, 2-(4-chloro-2,6-diisopropylphenyl)-N-(1-isopropyl-1H-pyrazol-3-ylsulfonyl)acetamide], the half-inhibitory concentration (IC50) fell in the range of 5 to 15 µM.

On to `CC(C)c1cc(F)cc(C(C)C)c1CC(=O)NS(=O)(=O)c1ccn(C(C)C)n1` [Example 62, 2-(4-fluoro-2,6-diisopropylphenyl)-N-(1-isopropyl-1H-pyrazol-3-ylsulfonyl)acetamide], for which the IC50 fell in the range of 5 to 15 µM.

Take `CC(C)c1cccc(C(C)C)c1CC(=O)NS(=O)(=O)c1cc(C(C)(C)O)n(-c2ccccc2)n1` [Example 63, 2-(2,6-diisopropylphenyl)-N-(5-(2-hydroxypropan-2-yl)-1-phenyl-1H-pyrazol-3-ylsulfonyl)acetamide]: the half-inhibitory concentration (IC50) was in the range of 5 to 15 µM.

Regarding `CC(C)c1cc(F)cc(C(C)C)c1CC(=O)NS(=O)(=O)c1cc(C(C)(C)O)n(-c2ccccc2)n1` [Example 64, 2-(4-fluoro-2,6-diisopropylphenyl)-N-(5-(2-hydroxypropan-2-yl)-1-phenyl-1H-pyrazol-3-ylsulfonyl)acetamide], the IC50 was in the range of 1 to 5 µM.

Consider `CC(C)c1cc(C#N)cc(C(C)C)c1CC(=O)NS(=O)(=O)c1cc(C(C)(C)O)n(-c2ccccc2)n1` [Example 65, 2-(4-cyano-2,6-diisopropylphenyl)-N-(5-(2-hydroxypropan-2-yl)-1-phenyl-1H-pyrazol-3-ylsulfonyl)acetamide], for which the IC50 was 5 to 15 µM.

Consider `CC(C)c1cccc(C(C)C)c1CC(=O)NS(=O)(=O)c1cc(C(C)(C)O)n(C)n1` [Example 66, 2-(2,6-diisopropylphenyl)-N-(5-(2-hydroxypropan-2-yl)-1-methyl-1H-pyrazol-3-ylsulfonyl)acetamide], for which the IC50 was 15 to 60 µM.

Consider `CC(C)c1cc(F)cc(C(C)C)c1CC(=O)NS(=O)(=O)c1cc(C(C)(C)O)n(C)n1` [Example 67, 2-(4-fluoro-2,6-diisopropylphenyl)-N-(5-(2-hydroxypropan-2-yl)-1-methyl-1H-pyrazol-3-ylsulfonyl)acetamide], for which the IC50 lay within 1 to 5 µM.

With `CC(C)c1cc(C#N)cc(C(C)C)c1CC(=O)NS(=O)(=O)c1cc(C(C)(C)O)n(C)n1` [Example 68, 2-(4-cyano-2,6-diisopropylphenyl)-N-(5-(2-hydroxypropan-2-yl)-1-methyl1H-pyrazol-3-ylsulfonyl)acetamide], the IC50 fell in the range of 5 to 15 µM.

Take `CC(C)(O)c1cnc(S(=O)(=O)NC(=O)Cc2c3c(c(F)c4c2CCC4)CCC3)s1` [Example 69, 2-(8-fluoro-1,2,3,5,6,7-hexahydros-indacen-4-yl)-N-(5-(2-hydroxypropan-2-yl)thiazol-2-ylsulfonyl)acetamide]: the IC50 was in the range of 15 to 60 µM.

As for `CC(C)c1cc(Cl)cc(C(C)C)c1CC(=O)NS(=O)(=O)c1ncc(C(C)(C)O)s1` [Example 70, 2-(4-chloro-2,6-diisopropylphenyl)-N-(5-(2-hydroxypropan-2-yl)thiazol-2-ylsulfonyl)acetamide], the IC50 is less than 1 µM.

In the case of `CC(C)c1ccc(F)c(C(C)C)c1CC(=O)NS(=O)(=O)c1ncc(C(C)(C)O)s1` [Example 71, 2-(3-fluoro-2,6-diisopropylphenyl)-N-(5-(2-hydroxypropan-2-yl)thiazol-2-ylsulfonyl)acetamide], the IC50 was 1 to 5 µM.

Take `CC(C)c1cc(C(F)(F)F)cc(C(C)C)c1CC(=O)NS(=O)(=O)c1ncc(C(C)(C)O)s1` [Example 72, 2-(2,6-diisopropyl-4-(trifluoromethyl)phenyl)-N-(5-(2-hydroxypropan-2-yl)thiazol-2-ylsulfonyl)acetamide]: the half-maximal inhibitory concentration (IC50) lay in the range of 1 to 5 µM.

For `COC(C)(C)c1cnc(S(=O)(=O)NC(=O)Cc2c(C(C)C)cc(F)cc2C(C)C)s1` [Example 73, 2-(4-fluoro-2,6-diisopropylphenyl)-N-(5-(2-methoxypropan-2-yl)thiazol-2-ylsulfonyl)acetamide], the IC50 is 1 to 5 µM.

Regarding `COC(C)(C)c1cnc(S(=O)(=O)NC(=O)Cc2c(C(C)C)cc(C#N)cc2C(C)C)s1` [Example 74, 2-(4-cyano-2,6-diisopropylphenyl)-N-(5-(2-methoxypropan-2-yl)thiazol-2-ylsulfonyl)acetamide], the 50% inhibitory concentration (IC50) was in the range of 5 to 15 µM.

Consider `CC(C)c1cc(F)cc(C(C)C)c1CC(=O)NS(=O)(=O)c1cnc(C(C)(C)O)s1` [Example 75, 2-(4-fluoro-2,6-diisopropylphenyl)-N-(2-(2-hydroxypropan-2-yl)thiazol-5-ylsulfonyl)acetamide], for which the half-maximal inhibitory concentration (IC50) was less than 1 µM.

As for `CC(C)c1cc(F)c(F)c(C(C)C)c1CC(=O)NS(=O)(=O)c1ncc(C(C)(C)O)s1` [Example 76, 2-(3,4-difluoro-2,6-diisopropylphenyl)-N-(5-(2-hydroxypropan-2-yl)thiazol-2-ylsulfonyl)acetamide], the IC50 was less than 1 µM.

Turning to `CC(C)c1c(F)cc(F)c(C(C)C)c1CC(=O)NS(=O)(=O)c1ncc(C(C)(C)O)s1` [Example 77, 2-(3,5-difluoro-2,6-diisopropylphenyl)-N-(5-(2-hydroxypropan-2-yl)thiazol-2-ylsulfonyl)acetamide], the 50% inhibitory concentration (IC50) lay within 1 to 5 µM.

Consider `CC(C)(O)c1cnc(S(=O)(=O)NC(=O)Cc2c(C3CC3)cccc2C2CC2)s1` [Example 78, 2-(2,6-dicyclopropylphenyl)-N-(5-(2-hydroxypropan-2-yl)thiazol-2-ylsulfonyl)acetamide], for which the IC50 was in the range of 5 to 15 µM.

With `CC(C)c1cc(Cl)cc(C(F)(F)F)c1CC(=O)NS(=O)(=O)c1ncc(C(C)(C)O)s1` [Example 79, 2-(4-chloro-2-isopropyl-6-(trifluoromethyl)phenyl)-N-(5-(2-hydroxypropan-2-yl)thiazol-2-ylsulfonyl)acetamide], the IC50 fell in the range of 15 to 60 µM.

As to `CC(C)c1cccc(C2CC2)c1CC(=O)NS(=O)(=O)c1ncc(C(C)(C)O)s1` [Example 80, 2-(2-cyclopropyl-6-isopropylphenyl)-N-(5-(2-hydroxypropan-2-yl)thiazol-2-ylsulfonyl)acetamide], the half-maximal inhibitory concentration (IC50) was in the range of 5 to 15 µM.

Regarding `CC(C)c1cc(F)cc(C(C)C)c1CC(=O)NS(=O)(=O)c1nc(C(C)(C)O)cs1` [Example 81, 2-(4-fluoro-2,6-diisopropylphenyl)-N-(4-(2-hydroxypropan-2-yl)thiazol-2-ylsulfonyl)acetamide], the concentration for half-maximal inhibition (IC50) was in the range of 15 to 60 µM.

For the molecule `CC(C)c1cc(C#N)cc(C(C)C)c1CC(=O)NS(=O)(=O)c1nc(C(C)(C)O)cs1` [Example 82, 2-(4-cyano-2,6-diisopropylphenyl)-N-(4-(2-hydroxypropan-2-yl)thiazol-2-ylsulfonyl)acetamide], the IC50 lay in the range of 15 to 60 µM.

Staying with this assay, now noted: hTHP-1 assay containing 2% bovine serum; Table 12, by Example #; read-out: Average IC50 of compounds in hTHP-1 assay.
For `CC(=O)c1ccc(F)c(S(=O)(=O)NC(=O)Cc2c(C(C)C)cc(F)cc2C(C)C)c1` [Example 55], the IC50 fell in the range of 1 to 5 µM.

For the origin of these results see patent US11447460B2, “Compounds and compositions for treating conditions associated with NLRP activity” (Novartis AG, priority 2016, dated 2022).
